Read-outs that look alike come from different tables or passages of the source.
Experiments:
[1] = system: Key Broadleaf Weed and Crop Species; test: Post-emergent Test II herbicidal activity (Table 5); type: in vivo; conditions: post-emergence, 336 h, 14 days after application; for pest or weed control at 70 g/ha: application rate 70 g ai/ha; for pest or weed control at 140 g/ha: application rate 140 g ai/ha
In short: (§1)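 Plants grown in Metro-Mix 360 (pH 6.0–6.8) in a greenhouse (~15 h photoperiod, 23–29 °C day) to first or second true leaf stage, then sprayed with compound in acetone/DMSO/aqueous crop-oil-surfactant carrier at 187 L/ha by track sprayer. Injury visually scored 0–100% versus untreated plants after 14 d.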

[2] = system: Key Grass and Sedge Weeds as well as Grass Crops; test: Post-emergent Test II herbicidal activity (Table 6); type: in vivo; conditions: post-emergence, 336 h
In short: as §1

[3] = ABUTH: velvetleaf (Abutilon theophrasti), read-out: Visual Growth Reduction (%) 14 Days After Application, ABUTH
[4] = AMARE: redroot pigweed (Amaranthus retroflexus), read-out: Visual Growth Reduction (%) 14 Days After Application, AMARE
[5] = BRSNN: oilseed-rape, canola (Brassica napus), read-out: Visual Growth Reduction (%) 14 Days After Application, BRSNN
[6] = CHEAL: lambsquarters (Chenopodium album), read-out: Visual Growth Reduction (%) 14 Days After Application, CHEAL
[7] = EPHHL: wild poinsettia (Euphorbia heterophylla), read-out: Visual Growth Reduction (%) 14 Days After Application, EPHHL
[8] = HELAN: sunflower (Helianthus annuus), read-out: Visual Growth Reduction (%) 14 Days After Application, HELAN
[9] = VIOTR: wild pansy (Viola tricolor), read-out: Visual Growth Reduction (%) 14 Days After Application, VIOTR

For `COC(=O)c1nc(-c2ccc(Br)cc2F)nc(N)c1OC` [Compound 35], the pest or weed control at 70 g/ha [1, 3] was 95 to 100%, the pest or weed control at 140 g/ha [1, 3] was 95 to 100% and the pest or weed control at 70 g/ha [1, 4] was 75 to 84%. The pest or weed control at 140 g/ha [1, 4] was 95 to 100%, the pest or weed control at 70 g/ha [1, 5] was 95 to 100% and the pest or weed control at 140 g/ha [1, 5] was 95 to 100%. For the same compound, the pest or weed control at 70 g/ha [1, 6] was 95 to 100%, the pest or weed control at 140 g/ha [1, 6] was 95 to 100% and the pest or weed control at 70 g/ha [1, 7] was 95 to 100%. It also gave a pest or weed control at 140 g/ha [1, 7] of 95 to 100%, a pest or weed control at 70 g/ha [1, 8] of 95 to 100% and a pest or weed control at 140 g/ha [1, 8] of 95 to 100%. The pest or weed control at 70 g/ha [1, 9] was 85 to 94%, the pest or weed control at 140 g/ha [1, 9] was 95 to 100% and the pest or weed control at 70 g/ha ([2]; CYPES: yellow nutsedge (Cyperus esculentus), 70 g ai/ha, read-out: Visual Growth Reduction (%) 14 Days After Application, CYPES) was 95 to 100%. For the same compound, the pest or weed control at 140 g/ha ([2]; CYPES: yellow nutsedge (Cyperus esculentus), 140 g ai/ha, read-out: Visual Growth Reduction (%) 14 Days After Application, CYPES) was 95 to 100%, the pest or weed control at 70 g/ha ([2]; DIGSA: crabgrass (Digitaria sanguinalis), 70 g ai/ha, read-out: Visual Growth Reduction (%) 14 Days After Application, DIGSA) was 45 to 59% and the pest or weed control at 140 g/ha ([2]; DIGSA: crabgrass (Digitaria sanguinalis), 140 g ai/ha, read-out: Visual Growth Reduction (%) 14 Days After Application, DIGSA) was 85 to 94%. It also gave a pest or weed control at 70 g/ha ([2]; ECHCG: barnyardgrass (Echinochloa crus-galli), 70 g ai/ha, read-out: Visual Growth Reduction (%) 14 Days After Application, ECHCG) of 30 to 44%, a pest or weed control at 140 g/ha ([2]; ECHCG: barnyardgrass (Echinochloa crus-galli), 140 g ai/ha, read-out: Visual Growth Reduction (%) 14 Days After Application, ECHCG) of 85 to 94% and a pest or weed control at 70 g/ha ([2]; ORYSA: rice (Oryza sativa), crop, 70 g ai/ha, read-out: Visual Growth Reduction (%) 14 Days After Application, ORYSA) of 0 to 29%. For the same compound, the pest or weed control at 140 g/ha ([2]; ORYSA: rice (Oryza sativa), crop, 140 g ai/ha, read-out: Visual Growth Reduction (%) 14 Days After Application, ORYSA) was 0 to 29%, the pest or weed control at 70 g/ha ([2]; SETFA: giant foxtail (Setaria faberi), 70 g ai/ha, read-out: Visual Growth Reduction (%) 14 Days After Application, SETFA) was 0 to 29% and the pest or weed control at 140 g/ha ([2]; SETFA: giant foxtail (Setaria faberi), 140 g ai/ha, read-out: Visual Growth Reduction (%) 14 Days After Application, SETFA) was 45 to 59%. The pest or weed control at 70 g/ha ([2]; SORVU: grain sorghum (Sorghum vulgare), 70 g ai/ha, read-out: Visual Growth Reduction (%) 14 Days After Application, SORVU) was 45 to 59%, the pest or weed control at 140 g/ha ([2]; SORVU: grain sorghum (Sorghum vulgare), 140 g ai/ha, read-out: Visual Growth Reduction (%) 14 Days After Application, SORVU) was 60 to 74% and the pest or weed control at 70 g/ha ([2]; TRZSS (wheat, Triticum aestivum), crop, 70 g ai/ha, read-out: Visual Growth Reduction (%) 14 Days After Application, TRZSS) was 30 to 44%. For the same compound, the pest or weed control at 140 g/ha ([2]; TRZSS (wheat, Triticum aestivum), crop, 140 g ai/ha, read-out: Visual Growth Reduction (%) 14 Days After Application, TRZSS) was 45 to 59%, the pest or weed control at 70 g/ha ([2]; ZEAMX: maize, corn (Zea mays), crop, 70 g ai/ha, read-out: Visual Growth Reduction (%) 14 Days After Application, ZEAMX) was 95 to 100% and the pest or weed control at 140 g/ha ([2]; ZEAMX: maize, corn (Zea mays), crop, 140 g ai/ha, read-out: Visual Growth Reduction (%) 14 Days After Application, ZEAMX) was 95 to 100%. For the same compound, the melting point was 163 to 165 °C.
`Nc1cc(-c2ccc(I)c(F)c2F)nc(C(=O)O)c1Cl` [Compound 38] showed a pest or weed control at 70 g/ha [1, 3] of 95 to 100%, a pest or weed control at 140 g/ha [1, 3] of 95 to 100% and a pest or weed control at 70 g/ha [1, 4] of 85 to 94%. For the same compound, the pest or weed control at 140 g/ha [1, 4] was 95 to 100%, the pest or weed control at 70 g/ha [1, 5] was 95 to 100% and the pest or weed control at 140 g/ha [1, 5] was 95 to 100%. For the same compound, the pest or weed control at 70 g/ha [1, 6] was 85 to 94%, the pest or weed control at 140 g/ha [1, 6] was 95 to 100% and the pest or weed control at 70 g/ha [1, 7] was 95 to 100%. For the same compound, the pest or weed control at 140 g/ha [1, 7] was 95 to 100%, the pest or weed control at 70 g/ha [1, 8] was 75 to 84% and the pest or weed control at 140 g/ha [1, 8] was 85 to 94%. The pest or weed control at 70 g/ha [1, 9] was 95 to 100%, the pest or weed control at 140 g/ha [1, 9] was 95 to 100% and the pest or weed control at 70 g/ha ([2]; Triticum aestivum, TRZSS (wheat), application rate 70 g ai/ha, read-out: Visual Growth Reduction (%) 14 Days After Application, TRZSS) was 60 to 74%. It also gave a pest or weed control at 140 g/ha ([2]; Triticum aestivum, TRZSS (wheat), application rate 140 g ai/ha, read-out: Visual Growth Reduction (%) 14 Days After Application, TRZSS) of 60 to 74%, a pest or weed control at 70 g/ha ([2]; CYPES: yellow nutsedge (Cyperus esculentus), application rate 70 g ai/ha, read-out: Visual Growth Reduction (%) 14 Days After Application, CYPES) of 95 to 100% and a pest or weed control at 140 g/ha ([2]; CYPES: yellow nutsedge (Cyperus esculentus), application rate 140 g ai/ha, read-out: Visual Growth Reduction (%) 14 Days After Application, CYPES) of 95 to 100%. The pest or weed control at 70 g/ha ([2]; DIGSA: crabgrass (Digitaria sanguinalis), application rate 70 g ai/ha, read-out: Visual Growth Reduction (%) 14 Days After Application, DIGSA) was 75 to 84%, the pest or weed control at 140 g/ha ([2]; DIGSA: crabgrass (Digitaria sanguinalis), application rate 140 g ai/ha, read-out: Visual Growth Reduction (%) 14 Days After Application, DIGSA) was 75 to 84% and the pest or weed control at 70 g/ha ([2]; ECHCG: barnyardgrass (Echinochloa crus-galli), application rate 70 g ai/ha, read-out: Visual Growth Reduction (%) 14 Days After Application, ECHCG) was 95 to 100%. The pest or weed control at 140 g/ha ([2]; ECHCG: barnyardgrass (Echinochloa crus-galli), application rate 140 g ai/ha, read-out: Visual Growth Reduction (%) 14 Days After Application, ECHCG) was 95 to 100%, the pest or weed control at 70 g/ha ([2]; ORYSA: rice (Oryza sativa), application rate 70 g ai/ha, read-out: Visual Growth Reduction (%) 14 Days After Application, ORYSA) was 0 to 29% and the pest or weed control at 140 g/ha ([2]; ORYSA: rice (Oryza sativa), application rate 140 g ai/ha, read-out: Visual Growth Reduction (%) 14 Days After Application, ORYSA) was 0 to 29%. For the same compound, the pest or weed control at 70 g/ha ([2]; SETFA: giant foxtail (Setaria faberi), application rate 70 g ai/ha, read-out: Visual Growth Reduction (%) 14 Days After Application, SETFA) was 95 to 100%, the pest or weed control at 140 g/ha ([2]; SETFA: giant foxtail (Setaria faberi), application rate 140 g ai/ha, read-out: Visual Growth Reduction (%) 14 Days After Application, SETFA) was 95 to 100% and the pest or weed control at 70 g/ha ([2]; SORVU: grain sorghum (Sorghum vulgare), application rate 70 g ai/ha, read-out: Visual Growth Reduction (%) 14 Days After Application, SORVU) was 85 to 94%. It also gave a pest or weed control at 140 g/ha ([2]; SORVU: grain sorghum (Sorghum vulgare), application rate 140 g ai/ha, read-out: Visual Growth Reduction (%) 14 Days After Application, SORVU) of 85 to 94%, a pest or weed control at 70 g/ha ([2]; ZEAMX: maize, corn (Zea mays), application rate 70 g ai/ha, read-out: Visual Growth Reduction (%) 14 Days After Application, ZEAMX) of 85 to 94% and a pest or weed control at 140 g/ha ([2]; ZEAMX: maize, corn (Zea mays), application rate 140 g ai/ha, read-out: Visual Growth Reduction (%) 14 Days After Application, ZEAMX) of 95 to 100%. For the same compound, the melting point was 288 to 293 °C (dec.).

— patent US9113629B2, “4-amino-6-(4-substituted-phenyl)-picolinates and 6-amino-2-(4-substituted-phenyl)-pyrimidine-4-carboxylates and their use as herbicides” (DOW AGROSCIENCES LLC, priority 2013, dated 2015)
